Legend:
[1] = target: GDP-bound NRAS wild-type protein (Homo sapiens, UniProt P01111); experiment: Binding to NRAS by surface plasmon resonance (SPR), KD and KD ratio to KRAS; settings: ratio of KD for GDP-bound NRAS wild-type protein to KD for KRAS
Procedure, shortened: (§1)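 Measured at 30°C: SPR with GDP-loaded, E. coli-expressed biotin-Avi RAS captured (~100–300 RU), ascending 75 s compound injections, HBS pH 7.4 with GDP, MgCl2, 4% DMSO. KD from 1:1 fit.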

[2] = target: GDP-bound KRAS wild-type protein (Homo sapiens, UniProt P01116); experiment: Binding to KRAS by surface plasmon resonance (SPR), dissociation constant KD; settings: Single Cycle Kinetics
Procedure, shortened: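 Compound binding is evaluated by SPR single-cycle kinetics, with concentrations added intermittently from low to high for 75 s each. Target surfaces carry GDP-loaded biotinylated Avi-RAS at about 100–300 RU, regenerated after each cycle; temperature 30°C. A 1:1 binding model gives KD.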

[3] = target: HRAS wild-type protein (Homo sapiens, UniProt P01112); experiment: Binding to HRAS by surface plasmon resonance (SPR), KD and KD ratio to KRAS; settings: ratio of KD for HRAS wild-type protein to KD for KRAS
Procedure, shortened: as §1

[4] = test system: human lung cancer strain NCI-H441; experiment: NCI-H441 cell proliferation inhibitory activity (CellTiter-Glo, 4 days); format: cell-based; settings: NCI-H441 cells, 4 days, read-out: NCl-H441 IC50
Procedure, shortened: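 Signal came from […] measured per well once the reagent was added. Beforehand, cells were cultured at 37°C and 5% carbon dioxide on a compound series serially diluted in dimethyl sulfoxide.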

Chain of GDP-bound KRAS wild-type protein (P01116 1-188 isoform P01116-2): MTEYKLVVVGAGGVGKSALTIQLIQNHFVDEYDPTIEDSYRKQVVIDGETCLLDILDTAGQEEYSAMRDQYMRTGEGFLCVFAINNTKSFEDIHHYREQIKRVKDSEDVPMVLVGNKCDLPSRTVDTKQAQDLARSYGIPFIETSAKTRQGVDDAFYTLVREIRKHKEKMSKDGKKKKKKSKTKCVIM
Chain of HRAS wild-type protein (P01112 whole entry): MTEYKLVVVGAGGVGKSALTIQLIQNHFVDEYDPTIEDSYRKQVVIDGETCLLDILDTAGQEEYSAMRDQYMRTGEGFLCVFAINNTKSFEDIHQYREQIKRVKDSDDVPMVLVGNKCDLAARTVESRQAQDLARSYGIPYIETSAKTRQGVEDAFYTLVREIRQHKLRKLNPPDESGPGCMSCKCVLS
Chain of GDP-bound NRAS wild-type protein (P01111 whole entry): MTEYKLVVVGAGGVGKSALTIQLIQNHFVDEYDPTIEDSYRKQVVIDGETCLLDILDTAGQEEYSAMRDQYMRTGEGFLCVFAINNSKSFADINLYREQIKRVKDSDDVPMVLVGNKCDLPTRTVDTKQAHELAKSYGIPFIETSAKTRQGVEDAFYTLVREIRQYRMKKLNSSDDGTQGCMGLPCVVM

Compound | Kd [2] [nM] | IC50 [4] [nM] | NRAS /KRAS [1] | HRAS /KRAS [3]
CCO[C@@H]1C[C@H]2C(=O)OC3(CCC3)C(=O)N(C)[C@@H](C3CCCC3)C(=O)N(C)[C@H](C(=O)N(C)C)CC(=O)N(C)[C@@H](CC(C)C)C(=O)N[C@@H]([C@@H](C)CC)C(=O)N(C3CC3)CC(=O)N(C)[C@H]3C/C=C\CCN(C3=O)[C@@H](Cc3ccc(C(F)(F)F)cc3)C(=O)N(C)CC(=O)N[C@@H](CCc3ccc(C(F)(F)F)c(OC)c3)C(=O)N2C1 [PP3363] | 1.8 | 24.8 | A (a compound having 10 or more and less than 20 is denoted as A) | B (a compound having 3 or more and less than 10 is denoted as B)
CCO[C@@H]1C[C@H]2C(=O)OC3(CCC3)C(=O)N(C)[C@@H](C3CCCC3)C(=O)N(C)[C@H](C(=O)N(C)C)CC(=O)N(C)[C@@H](CC(C)C)C(=O)N[C@@H]([C@@H](C)CC)C(=O)N(C)CC(=O)N(C)[C@H]3C/C=C\CCN(C3=O)[C@@H](Cc3ccc(C(F)(F)F)cc3)C(=O)N(C)CC(=O)N[C@@H](CCc3ccc(C(F)(F)F)c(OC)c3)C(=O)N2C1 [PP3364] | 0.16 | 8.2 | A (a compound having 10 or more and less than 20 is denoted as A) | A (a compound having 10 or more and less than 20 is denoted as A)
CCCC[C@H]1C(=O)N[C@@H]([C@@H](C)CC)C(=O)N2CCC[C@H]2C(=O)N(C)[C@H]2C/C=C\CCN(C2=O)[C@@H](Cc2ccc(C(F)(F)F)cc2)C(=O)N(C)CC(=O)N[C@@H](CCc2ccc(C(F)(F)F)c(OC)c2)C(=O)N2C[C@H](OCC)C[C@H]2C(=O)OC2(CCC2)C(=O)N(C)[C@@H](C2CCCC2)C(=O)N(C)[C@H](C(=O)N(C)C)CC(=O)N1C [PP3365] | 0.65 | 19.4 | AA (a compound having 20 or more is denoted as AA) | A (a compound having 10 or more and less than 20 is denoted as A)
CCCC[C@H]1C(=O)N[C@@H]([C@@H](C)CC)C(=O)N(C2CC2)CC(=O)N(C)[C@H]2C/C=C\CCN(C2=O)[C@@H](Cc2ccc(C(F)(F)F)cc2)C(=O)N(C)CC(=O)N[C@@H](CCc2ccc(C(F)(F)F)c(OC)c2)C(=O)N2C[C@H](OCC)C[C@H]2C(=O)OC2(CCC2)C(=O)N(C)[C@@H](C2CCCC2)C(=O)N(C)[C@H](C(=O)N(C)C)CC(=O)N1C [PP3366] | 1.1 | 34.3 | A (a compound having 10 or more and less than 20 is denoted as A) | A (a compound having 10 or more and less than 20 is denoted as A)
CCCC[C@H]1C(=O)N[C@@H]([C@@H](C)CC)C(=O)N(C)CC(=O)N(C)[C@H]2C/C=C\CCN(C2=O)[C@@H](Cc2ccc(C(F)(F)F)cc2)C(=O)N(C)CC(=O)N[C@@H](CCc2ccc(C(F)(F)F)c(OC)c2)C(=O)N2C[C@H](OCC)C[C@H]2C(=O)OC2(CCC2)C(=O)N(C)[C@@H](C2CCCC2)C(=O)N(C)[C@H](C(=O)N(C)C)CC(=O)N1C [PP3367] | 0.18 | 8.5 | A (a compound having 10 or more and less than 20 is denoted as A) | A (a compound having 10 or more and less than 20 is denoted as A)
CCC[C@H]1C(=O)N[C@@H]([C@@H](C)CC)C(=O)N(C2CC2)CC(=O)N(C)[C@H]2C/C=C\CCN(C2=O)[C@@H](Cc2ccc(C(F)(F)F)cc2)C(=O)N(C)CC(=O)N[C@@H](CCc2ccc(C(F)(F)F)c(OC)c2)C(=O)N2C[C@H](OCC)C[C@H]2C(=O)OC2(CCC2)C(=O)N(C)[C@@H](C2CCCC2)C(=O)N(C)[C@H](C(=O)N(C)C)CC(=O)N1C [PP3369] | 0.86 | 9.1 | A (a compound having 10 or more and less than 20 is denoted as A) | A (a compound having 10 or more and less than 20 is denoted as A)
C#CC[C@H]1C(=O)N[C@@H]([C@@H](C)CC)C(=O)N2CCC[C@H]2C(=O)N(C)[C@H]2C/C=C\CCN(C2=O)[C@@H](Cc2ccc(C(F)(F)F)cc2)C(=O)N(C)CC(=O)N[C@@H](CCc2ccc(C(F)(F)F)c(OC)c2)C(=O)N2C[C@H](OCC)C[C@H]2C(=O)OC2(CCC2)C(=O)N(C)[C@@H](C2CCCC2)C(=O)N(C)[C@H](C(=O)N(C)C)CC(=O)N1C [PP3371] | 0.33 | 5.4 | A (a compound having 10 or more and less than 20 is denoted as A) | A (a compound having 10 or more and less than 20 is denoted as A)
C#CC[C@H]1C(=O)N[C@@H]([C@@H](C)CC)C(=O)N(C2CC2)CC(=O)N(C)[C@H]2C/C=C\CCN(C2=O)[C@@H](Cc2ccc(C(F)(F)F)cc2)C(=O)N(C)CC(=O)N[C@@H](CCc2ccc(C(F)(F)F)c(OC)c2)C(=O)N2C[C@H](OCC)C[C@H]2C(=O)OC2(CCC2)C(=O)N(C)[C@@H](C2CCCC2)C(=O)N(C)[C@H](C(=O)N(C)C)CC(=O)N1C [PP3372] | 1.5 | 16.8 | A (a compound having 10 or more and less than 20 is denoted as A) | B (a compound having 3 or more and less than 10 is denoted as B)
CCO[C@@H]1C[C@H]2C(=O)OC3(CCC3)C(=O)N(C)[C@@H](C3CCCC3)C(=O)N(C)[C@H](C(=O)N(C)C)CC(=O)N(C)[C@@H]([C@@H](C)OC)C(=O)N[C@@H]([C@@H](C)CC)C(=O)N(C3CC3)CC(=O)N(C)[C@H]3C/C=C\CCN(C3=O)[C@@H](Cc3ccc(C(F)(F)F)cc3)C(=O)N(C)CC(=O)N[C@@H](CCc3ccc(C(F)(F)F)c(OC)c3)C(=O)N2C1 [PP3375] | 0.41 | 6 | A (a compound having 10 or more and less than 20 is denoted as A) | B (a compound having 3 or more and less than 10 is denoted as B)
CCO[C@@H]1C[C@H]2C(=O)OC3(CCC3)C(=O)N(C)[C@@H](C3CCCC3)C(=O)N(C)[C@H](C(=O)N(C)C)CC(=O)N(C)[C@@H]([C@H](C)OC)C(=O)N[C@@H]([C@@H](C)CC)C(=O)N(C)CC(=O)N(C)[C@H]3C/C=C\CCN(C3=O)[C@@H](Cc3ccc(C(F)(F)F)cc3)C(=O)N(C)CC(=O)N[C@@H](CCc3ccc(C(F)(F)F)c(OC)c3)C(=O)N2C1 [PP3379] | 0.24 | 9.5 | A (a compound having 10 or more and less than 20 is denoted as A) | B (a compound having 3 or more and less than 10 is denoted as B)

The remaining compounds from weak to strong by Kd [2], led by results:

Kd [2] [nM] | IC50 [4] [nM] | Compound | NRAS /KRAS [1] | HRAS /KRAS [3]
1.3 | 11.6 | CCO[C@@H]1C[C@H]2C(=O)OC3(CCC3)C(=O)N(C)[C@@H](C3CCCC3)C(=O)N(C)[C@H](C(=O)N(C)C)CC(=O)N(C)[C@@H]([C@H](C)OC)C(=O)N[C@@H]([C@@H](C)CC)C(=O)N(C3CC3)CC(=O)N(C)[C@H]3C/C=C\CCN(C3=O)[C@@H](Cc3ccc(C(F)(F)F)cc3)C(=O)N(C)CC(=O)N[C@@H](CCc3ccc(C(F)(F)F)c(OC)c3)C(=O)N2C1 [PP3378] | A (a compound having 10 or more and less than 20 is denoted as A) | A (a compound having 10 or more and less than 20 is denoted as A)
1.3 | 28.9 | CCO[C@@H]1C[C@H]2C(=O)OC3(CCC3)C(=O)N(C)[C@@H](C3CCCC3)C(=O)N(C)[C@H](C(=O)N(C)C)CC(=O)N(C)[C@@H](CC(C)C)C(=O)N[C@@H]([C@@H](C)CC)C(=O)N3CCC[C@H]3C(=O)N(C)[C@H]3C/C=C\CCN(C3=O)[C@@H](Cc3ccc(C)cc3)C(=O)N(C)CC(=O)N[C@@H](CCc3ccc(C(F)(F)F)c(OC)c3)C(=O)N2C1 [PP3380] | A (a compound having 10 or more and less than 20 is denoted as A) | B (a compound having 3 or more and less than 10 is denoted as B)
0.53 | 11.3 | CCO[C@@H]1C[C@H]2C(=O)OC3(CCC3)C(=O)N(C)[C@@H](C3CCCC3)C(=O)N(C)[C@H](C(=O)N(C)C)CC(=O)N(C)[C@@H]([C@H](C)OC)C(=O)N[C@@H]([C@@H](C)CC)C(=O)N3CCC[C@H]3C(=O)N(C)[C@H]3C/C=C\CCN(C3=O)[C@@H](Cc3ccc(C(F)(F)F)cc3)C(=O)N(C)CC(=O)N[C@@H](CCc3ccc(C(F)(F)F)c(OC)c3)C(=O)N2C1 [PP3377] | A (a compound having 10 or more and less than 20 is denoted as A) | A (a compound having 10 or more and less than 20 is denoted as A)
0.21 | 12.5 | C#CC[C@H]1C(=O)N[C@@H]([C@@H](C)CC)C(=O)N(C)CC(=O)N(C)[C@H]2C/C=C\CCN(C2=O)[C@@H](Cc2ccc(C(F)(F)F)cc2)C(=O)N(C)CC(=O)N[C@@H](CCc2ccc(C(F)(F)F)c(OC)c2)C(=O)N2C[C@H](OCC)C[C@H]2C(=O)OC2(CCC2)C(=O)N(C)[C@@H](C2CCCC2)C(=O)N(C)[C@H](C(=O)N(C)C)CC(=O)N1C [PP3373] | A (a compound having 10 or more and less than 20 is denoted as A) | A (a compound having 10 or more and less than 20 is denoted as A)
0.14 | 6.8 | CCC[C@H]1C(=O)N[C@@H]([C@@H](C)CC)C(=O)N(C)CC(=O)N(C)[C@H]2C/C=C\CCN(C2=O)[C@@H](Cc2ccc(C(F)(F)F)cc2)C(=O)N(C)CC(=O)N[C@@H](CCc2ccc(C(F)(F)F)c(OC)c2)C(=O)N2C[C@H](OCC)C[C@H]2C(=O)OC2(CCC2)C(=O)N(C)[C@@H](C2CCCC2)C(=O)N(C)[C@H](C(=O)N(C)C)CC(=O)N1C [PP3370] | A (a compound having 10 or more and less than 20 is denoted as A) | B (a compound having 3 or more and less than 10 is denoted as B)
